# Measurements: patent US11512053B2, “Arginine methyltransferase inhibitors and uses thereof” (priority 2013, dated 2022)
# Read-outs that look alike come from different tables or passages of the source.
# Columns and labels:
# [1] = molecular target: full-length human PRMT1 isoform 1 (GST-tagged) (Homo sapiens, UniProt Q99873); assay: PRMT1 Biochemical Assay (3H-SAM Flashplate, peptide substrate)
# Description: General Materials. S-adenosylmethionine (SAM), S-adenosylhomocysteine (SAH), bicine, Tween20, dimethylsulfoxide (DMSO), bovine skin gelatin (BSG), and Tris(2-carboxyethyl)phosphine hydrochloride solution (TCEP) were purchased from Sigma-Aldrich at the highest level of purity possible. ^3H-SAM was purchase from American Radiolabeled Chemicals with a specific activity of 80 Ci/mmol. 384-well streptavidin Flashplates were purchased from PerkinElmer.
# Protein Expression. Recombinant baculovirus were generated according to Bac-to-Bac kit instructions (Life Technologies). […] Infections were carried out at 27° C. for 48 hours, harvested by centrifugation, and stored at −80° C. for purification.
# Protein Purification. […] GST-tagged PRMT1 was eluted with 50 mM Tris, 2 mM glutathione, pH 7.8, dialysed in buffer A and concentrated to 1 mg/mL.
# General Procedure for PRMT1 Enzyme Assays on Peptide Substrates. The assays were all performed in a buffer consisting of 20 mM Bicine (pH=7.6), 1 mM TCEP, 0.005% BSG, and 0.002% Tween 20, prepared on the day of use. […] DMSO (1 ul) was added to Columns 11, 12, 23, 24, rows A-H for the maximum signal control and 1 ul of SAH, a known product and inhibitor of PRMT1, was added to columns 11, 12, 23, 24, rows I-P for the minimum signal control. A cocktail (40 ul) containing the PRMT1 enzyme was added by Multidrop Combi (Thermo-Fisher). The compounds were allowed to incubate with PRMT1 for 30 min at room temperature, then a cocktail (10 ul) containing SAM and peptide was added to initiate the reaction (final volume=51 ul). […] The assays were stopped by the addition of non-radiolabeled SAM (10 ul) to a final concentration of 300 uM, which dilutes the ^3H-SAM to a level where its incorporation into the peptide substrate is no longer detectable. 50 ul of the reaction in the 384-well polypropylene plate was then transferred to a 384-well Flashplate and the biotinylated peptides were allowed to bind to the streptavidin surface for at least 1 hour before being washed once with 0.1% Tween20 in a Biotek ELx405 plate washer. The plates were then read in a PerkinElmer TopCount plate reader to measure the quantity of ^3H-labeled peptide bound to the Flashplate surface, measured as disintegrations per minute (dpm) or alternatively, referred to as counts per minute (cpm).
# Where dpm=disintegrations per minute, cmpd=signal in assay well, and min and max are the respective minimum and maximum signal controls.
# Where top and bottom are the normally allowed to float, but may be fixed at 100 or 0 respectively in a 3-parameter fit. The Hill Coefficient normally allowed to float but may also be fixed at 1 in a 3-parameter fit. Y is the % inhibition and X is the compound concentration.
# [2] = molecular target: full-length human PRMT8 isoform 1 (Homo sapiens, UniProt Q9NR22); assay: PRMT8 Biochemical Assay (3H-SAM Flashplate, peptide substrate); details: read-out: Biochemical IC50 PRMT8
# Chain of full-length human PRMT8 isoform 1 (Q9NR22 whole entry, canonical isoform): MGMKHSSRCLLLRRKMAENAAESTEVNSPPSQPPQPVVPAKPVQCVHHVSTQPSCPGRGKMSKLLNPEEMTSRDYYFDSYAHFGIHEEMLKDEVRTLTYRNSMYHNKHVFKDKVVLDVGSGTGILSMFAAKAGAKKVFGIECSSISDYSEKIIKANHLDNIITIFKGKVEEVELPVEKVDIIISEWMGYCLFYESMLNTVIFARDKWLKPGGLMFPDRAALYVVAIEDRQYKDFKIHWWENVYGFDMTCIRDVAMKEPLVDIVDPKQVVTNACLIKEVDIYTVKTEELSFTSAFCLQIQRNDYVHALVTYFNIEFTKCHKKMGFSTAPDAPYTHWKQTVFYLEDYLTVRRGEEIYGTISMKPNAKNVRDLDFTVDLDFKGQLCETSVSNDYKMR
# Outline: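 Scintillation Flashplate capture of biotinylated histone H4 (31-45) peptide (150 nM) methylated by 1.5 nM PRMT8 using 3H-SAM (50 nM) with unlabelled SAM (550 nM); enzyme and compound preincubated 30 min, room temperature, in Bicine pH 7.6 buffer with TCEP, BSG, Tween 20 and 2% DMSO. Stopped with excess cold SAM (400 uM); IC50 from % inhibition, min control 1 mM SAH.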
# [3] = single experiment or average of multiple experiments
# Chain of full-length human PRMT1 isoform 1 (GST-tagged) (Q99873 with tags, fused parts or gaps): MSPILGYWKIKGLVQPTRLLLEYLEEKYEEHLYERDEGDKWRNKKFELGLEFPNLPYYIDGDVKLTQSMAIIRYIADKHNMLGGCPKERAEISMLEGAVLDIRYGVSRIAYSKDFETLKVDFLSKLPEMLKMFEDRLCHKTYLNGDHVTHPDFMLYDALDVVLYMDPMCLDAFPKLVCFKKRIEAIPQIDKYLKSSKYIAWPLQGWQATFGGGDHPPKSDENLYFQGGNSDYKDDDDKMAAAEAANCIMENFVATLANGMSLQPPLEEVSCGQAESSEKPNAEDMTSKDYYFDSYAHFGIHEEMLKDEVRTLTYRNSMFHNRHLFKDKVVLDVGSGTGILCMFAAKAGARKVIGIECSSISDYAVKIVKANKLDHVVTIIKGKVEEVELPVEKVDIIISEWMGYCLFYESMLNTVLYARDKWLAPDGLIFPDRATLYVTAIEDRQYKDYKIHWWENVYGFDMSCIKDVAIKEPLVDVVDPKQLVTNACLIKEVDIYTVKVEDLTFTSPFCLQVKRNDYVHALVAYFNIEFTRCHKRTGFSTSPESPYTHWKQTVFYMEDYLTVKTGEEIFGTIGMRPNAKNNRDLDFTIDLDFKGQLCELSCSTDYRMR
smiles,measurement,setting,value
"CNCCN(C)Cc1c[nH]nc1C1CCC(C)(C)C(O)C1 (stereo not drawn) [Compound 185, 2,2-dimethyl-5-[4-({methyl[2-(methylamino)ethyl]amino}methyl)-1H-pyrazol-3-yl]cyclohexan-1-ol]",IC50,[1],< 100 nM
same,IC50,[1]; [3],14.2 nM
same,IC50,[2],< 100 nM
same,IC50,[2]; [3],24.4 nM
"CNCCN(C)Cc1c[nH]nc1C1CCC(O)C2(CCCC2)C1 (stereo not drawn) [Compound 182, 9-[4-({methyl[2-(methylamino)ethyl]amino}methyl)-1H-pyrazol-3-yl]spiro[4.5]decan-6-ol]",IC50,[1],< 100 nM
same,IC50,[1]; [3],11.6 nM
same,IC50,[2],< 100 nM
same,IC50,[2]; [3],32.3 nM
CNCCN(C)Cc1c[nH]nc1C1CCC(CC(C)C)CC1 (stereo not drawn) [Compound 169],IC50,[1],< 100 nM
same,IC50,[1]; [3],6.5 nM
same,IC50,[2],< 100 nM
same,IC50,[2]; [3],10.2 nM
CCOCC1CC(COCC)CC(c2n[nH]cc2CN(C)CCNC)C1 (stereo not drawn) [Compound 119],IC50,[1],101 to 1000 nM
same,IC50,[1]; [3],124 nM
same,IC50,[2],101 to 1000 nM
same,IC50,[2]; [3],728 nM
CNCCN(C)Cc1c[nH]nc1C1CCCC(COCCC(O)CO)C1 (stereo not drawn) [Compound 113],IC50,[1],< 100 nM
same,IC50,[1]; [3],57.2 nM
same,IC50,[2],101 to 1000 nM
same,IC50,[2]; [3],119 nM
CCCOC1CC(OCCC)CC(c2n[nH]cc2CN(C)CCNC)C1 (stereo not drawn) [Compound 131],IC50,[1],101 to 1000 nM
same,IC50,[1]; [3],270 nM
same,IC50,[2],1010 to 3000 nM
same,IC50,[2]; [3],1970 nM
CNCCN(C)Cc1c[nH]nc1[C@H]1CC[C@]2(CCN(Cc3ccc(OCCOC)cc3)C2=O)CC1 [Compound 111],IC50,[1],< 100 nM
same,IC50,[1]; [3],22.4 nM
same,IC50,[2],< 100 nM
same,IC50,[2]; [3],59.9 nM
CNCCN(C)Cc1c[nH]nc1[C@H]1CC[C@]2(CCN(Cc3ccccc3)C2=O)CC1 [Compound 128],IC50,[1],< 100 nM
same,IC50,[1]; [3],5.2 nM
same,IC50,[2],< 100 nM
same,IC50,[2]; [3],8.2 nM
CNCCN(C)Cc1c[nH]nc1C1CC(OC(C)C)CC(OC(C)C)C1 (stereo not drawn) [Compound 118],IC50,[1],1010 to 3000 nM
same,IC50,[1]; [3],2160 nM
same,IC50,[2],> 10000 nM
same,IC50,[2]; [3],> 10000 nM
CNCCN(C)Cc1c[nH]nc1C1CC(OCC(C)C)CC(OCC(C)C)C1 (stereo not drawn) [Compound 122],IC50,[1],101 to 1000 nM
same,IC50,[1]; [3],421 nM
same,IC50,[2],3010 to 10000 nM
same,IC50,[2]; [3],8370 nM
CCN1C(=O)N(C)CC12CCC(c1n[nH]cc1CN(C)CCNC)CC2 (stereo not drawn) [Compound 162],IC50,[1],< 100 nM
same,IC50,[1]; [3],38.9 nM
same,IC50,[2],< 100 nM
same,IC50,[2]; [3],92.7 nM
CNCCN(C)Cc1c[nH]nc1[C@H]1CC[C@@]2(CCN(Cc3ccc(F)cc3)C2=O)CC1 [Compound 125],IC50,[1],< 100 nM
same,IC50,[1]; [3],5.3 nM
same,IC50,[2],< 100 nM
same,IC50,[2]; [3],9 nM
CCOC1CC(OCC)CC(c2n[nH]cc2CN(C)CCNC)C1 (stereo not drawn) [Compound 132],IC50,[1],101 to 1000 nM
same,IC50,[1]; [3],626 nM
same,IC50,[2],3010 to 10000 nM
same,IC50,[2]; [3],4330 nM
CNCCN(C)Cc1c[nH]nc1C1CC(C)OC(C)C1 (stereo not drawn) [Compound 179],IC50,[1],< 100 nM
same,IC50,[1]; [3],15.9 nM
same,IC50,[2],< 100 nM
same,IC50,[2]; [3],57.3 nM
CNCCN(C)Cc1c[nH]nc1C1CCC2(CC1)CC2 [Compound 144],IC50,[1],< 100 nM
same,IC50,[1]; [3],21.6 nM
same,IC50,[2],< 100 nM
same,IC50,[2]; [3],78.4 nM
CNCCN(C)Cc1c[nH]nc1C1CCC2(CCCCO2)CC1 (stereo not drawn) [Compound 137],IC50,[1],< 100 nM
same,IC50,[1]; [3],7.3 nM
same,IC50,[2],< 100 nM
same,IC50,[2]; [3],16.2 nM
CNCCN(C)Cc1c[nH]nc1C1CCC2(CCNC2=O)CC1 (stereo not drawn) [Compound 176],IC50,[1],< 100 nM
same,IC50,[1]; [3],10.2 nM
same,IC50,[2],< 100 nM
same,IC50,[2]; [3],28.6 nM
CNCCN(C)Cc1c[nH]nc1C1CCC2(CC1)OCCO2 [Compound 177],IC50,[1],< 100 nM
same,IC50,[1]; [3],27.6 nM
same,IC50,[2],101 to 1000 nM
same,IC50,[2]; [3],150 nM
